Where a SMILES comes first, the peptide text is derived from it.
How the values were obtained:
gastrointestinal cells = conditions: cited from earlier work
[1] = system: cortical neurons injured with okadaic acid; test: In vitro neuroprotection, cortical cultures injured with okadaic acid (MTT); assay type: cell-based, rat; conditions: 10 μM; okadaic acid injury; 24 hours incubation; MTT-assay
Method: A dam was sacrificed by CO2-treatment, and then was prepared for caesarean section. After surgery, the embryos were removed from their amniotic sacs and decapitated. The heads were placed on ice in DMEM/F12 medium for striatum and PBS+0.65% D(+)-glucose for cortex.
The two cortical hemispheres were carefully removed by spatula from the whole brain with the ventral side facing upside into a PBS+0.65% D(+)-glucose containing petri dish. Forceps were put into the rostral part (near B. olfactorius) of the cortex in order to fix the tissue and two lateral-sagittal oriented cuts were made to remove the […] and entorhinal cortices. […]
The cells were triturated once with a glass Pasteur pipette in 1 ml of Neurobasal/B27 medium and subsequently twice by using a 1 ml insulin syringe with a 22 gauge needle. […] Cells were counted and adjusted to 50,000 cells per 60 μl. […]
To cause toxic injury to neurons, we exposed neurons to 1:100 parts of okadaic acid at concentrations of 30 nM or 100 nM and 0.5 mM 3-nitropropionic acid (for cerebellar microexplants only). […] The survival rate was determined by a colorimetric end-point MTT-assay at 595 nm in a multi-well plate reader. For the cerebellar microexplants four windows (field of 0.65 mm^2) with highest cell density were chosen and cells displaying neurite outgrowth were counted.

[2] = system: layer 5 cortical neurons of MeCP2-/y mice; test: Whole-cell recordings of spontaneous EPSCs in acute brain slices (Example 10); assay type: in vivo, mouse; conditions: 20 mg/kg i.p. daily P15 to P28-P32; vs vehicle
Method: For the survival measurements, the nocturnal activity analysis and the immunoblot analysis, G-2-MePE (synthesised Albany Molecular Research Inc. (Albany, N.Y.) and supplied by Neuren Pharmaceuticals Limited) is administered daily via intra-peritoneal injections (20 mg/kg, vehicle=saline, 0.01% BSA). The treatment starts at P15 and is maintained throughout the course of the experiments. For intracellular physiology experiments, the mice are injected daily with G-2-MePE (20 mg/kg body weight, vehicle=saline, 0.01% BSA) for 2 weeks, from P15 to P28-P32 when they are used for acute slice preparation. For optical imaging experiments, mice are injected with G-2-MePE (20 mg/kg body weight, vehicle=saline, 0.01% BSA) daily from the day of the lid suture to the day of imaging. […]
Borosilicate pipettes (3-5 MΩ, WPI) are pulled using a Sutter P-80 puller (Sutter Instruments). Cells are visualized with an Achroplan 40× water-immersion lens with infrared-DIC optics (Zeiss) and detected with an infrared camera (Hamamatsu) projecting to a video monitor. […] Then in current clamp ˜10 pulses (500 ms, 40-140 pA at 10 pA increments), are applied to quantify evoked firing rates and cellular excitability. […] Analysis is performed using a custom software package written in Matlab, with all events detected according to automated thresholds and blindly verified for each event individually by the experimenter.

## C[C@@]1(C(=O)N[C@@H](CCC(=O)O)C(=O)O)CCCN1C(=O)CN [Example G-2-MePE, Glycyl-L-2-methylprolyl-L-glutamic acid] (HELM PEPTIDE1{G.[C[C@@]1(C(=O)[*:2])CCCN1[*:1]].E}$$$$V2.0)
Gastrointestinal cells
  degradation by gastrointestinal cells: not degraded
  uptake by gastrointestinal cells: taken up
[1]
  neuroprotection: 59%
[2]
  spontaneous EPSC amplitude: significantly larger in amplitude
